Measured values reported in patent publication US20040019092A1, “Non-peptide somatostatin receptor ligands” (priority 2001, published 2004).
Where “and” joins values, the source holds several entries; their conditions need not be identical. Identical values can stand only once.

Tests used:
[1] = In vitro blood distribution; format: in vitro ADME; settings: rat blood, 5-5000 ng/mL
Protocol: (§1) In vitro blood distribution and plasma protein binding. For blood distribution studies, fresh, heparinized rat blood (n=3) was spiked with [^14C]-42 to achieve the final concentrations of 5, 50, 500 and 5000 ng/mL. After a 30-minutes incubation at 4° C., 22° C. and 37° C., the samples were centrifuged (1600×g, 10 minutes, at the incubation temperature) to get plasma. The fraction free of 42 in plasma of rat and human was determined by equilibrium dialysis. Phosphate buffer was spiked with [^14C]-42 (50, 500, 5000 ng/mL) and dialyzed versus blank rat and human plasma at 37° C. for 2 hours. The radioactivity was determined in spiked blood samples, in plasma obtained after centrifugation and in both compartments after dialysis.

[2] = Plasma protein binding, equilibrium dialysis, rat plasma; format: in vitro ADME
Protocol: as §1

[3] = Urinary excretion and metabolite patterns in blood and urine; format: in vivo, rat; settings: for Urinary excretion of parent drug: underestimates (urine lost)
Protocol: Metabolite patters were determined in blood extracts and in urine. Blood was pooled from the 3 intravenously dosed rats of the pharmacokinetic study and from 3 additional rats treated in the same way. Urine was obtained from the animals of the pharmacokinetic study.
Between 0.3 and 0.6 mL of pooled diluted blood were spiked with 10-20 μg unlabeled compound 42-ch, extracted with 10 mL of methanol (HPLC grade, Rathburn) by sonication and centrifuged. The pellet was extracted once more in the same way. The two supernatants were combined and evaporated under reduced pressure at 35° C. on a rotary evaporator. The residue was transferred into a smaller vial by means of methanol and water, evaporated under a stream of nitrogen and taken up in 80 μl methanol and 320 μl water or in 120 μl methanol and 280 μl water by sonication. The suspension was centrifuged and a 300 μl aliquot of the supernatant was injected onto the HPLC column. The extraction yield of radioactivity was only 45±12% (mean ISD).
To urine samples, acetonitrile (˜5% v/v), TFA (to obtain a pH of ˜3) and unlabeled compound 42-ch (˜4 μg per volume analyzed) were added. The mixtures were centrifuged and 1-2 mL of supernatant were injected onto the HPLC column.
The chromatography was performed using HP 1090 liquid chromatograph (Hewlett-Packard). The radioactivity of the column eluate was measured by liquid scintillation counting either off-line or on-line using a Berthold LB 507A radioactivity monitor. The samples were chromatographed on a reversed-phase column (Nucleosil 100, C18AB, 250×4.6 mm, 5 μm particle size, Macherey-Nagel) protected by a corresponding 8×4 mm precolumn. The column temperature was 40° C. The components were eluted with a gradient of 0.02% v/v trifluoroacetic acid (TFA, Pierce) in water (mobile phase A, pH 2.8) versus acetonitrile (HPLC grade S, Rathburn; mobile phase B). The proportion of solvent B was kept at 5% up to 5 minutes after injection and was then increased in linear segments to 40% at 110 minutes and 100% at 120 minutes where it was kept for another 10 minutes. The total flow rate was 1 mL/min. The unlabeled parent drug, added as a retention time marker, was monitored by UV detection at 216 nm.

[4] = male, Wistar, rat, in vivo, iv
Protocol: The pharmacokinetic study was performed with 3 male Wistar rats (BRL) weighing 300-330 g with a one week interval between administration phases. The day before the first dosing, the rats underwent surgical implantation of an in-dwelling cannula; the right femoral artery was cannulated and the tube was passed subcutaneously to emerge at the back of the neck. The animals were individually housed in metabolism cages and fasted overnight before administrations.
The dose solution was administered (5 mL/kg) by gastric incubation.
The dose solution was administered (2 mL/kg) into the surgically exposed femoral vein.
During the study, 18 blood samples (100-500 μL) were taken, up to 48 hours post-dose from the cannulated femoral artery representing a total volume of 5.7 mL blood. The loss of blood was compensated by infusion of 6 times 1 mL of blood from donor rats. Urine samples were collected up to 48 hours post-dose. For the analysis of the in vivo brain distribution, 3 male rats were intravenously dosed (1 mg/kg or 72 μCi/kg) as described above. At 0.5 hours after administration, the rats were sacrificed; blood and brain were collected.
Determination of radioactivity in blood, plasma, brain homogenates and in urine, was carried out by direct liquid scintillation counting. Prior to radiometric determination, blood and tissue were solubilized in Solutron (Kontron Instruments, Zurich, Switzerland). After adding 10 mL of scintillation cocktail (Lumasafe, Lumac, Landgraaf, the Netherlands), all samples were counted in Tri-carb liquid scintillation analyzer (Canberra Packard, IL).
The procedure involved the addition of 5 μg of non-radiolabeled 42 to each blood sample as an internal standard. After adding 1 mL of acetonitrile, the sample was mixed with a Polytron mixer and centrifuged (234000×g, 30 minutes) in a Beckman centrifuge (Model TL100). The supernatant was evaporated in a vacuum centrifuge (Univapo 150H, Zivy). The residue was reconstituted in 250 μL of mobile phase-water (3:1 v/v) and centrifuged (3000×g, 60 s). The supernatant (200 μL) was injected onto HPLC. […] Compound 42 was separated from potential metabolites and endogenous compounds on a RP18 endcapped Superspher column, 125 mm×4 mm (Merck) at 45° C. The mobile phase consisted of 0.1% tetramethylammonium hydroxide—acetonitrile (500:500 v/v). The flow rate was 1 mL/min; the effluent was monitored at 260 nm. […] The limit of quantification was 0.3 ng/mL.
The peeling method was applied to describe the data by a compartment model approach, characterized by the following equation: C═C1*e^λ1−t+C2*e^λ2−t. The initial estimates of C1, λ1, C2, λ2 were taken to generate the best fit using the computer software ELSFIT. The estimates for half-lives were calculated as T1/2λi=ln2/λi.

[5] = test system: SRIF receptors ([^125I]SRIF-28 binding sites); assay: Ex-vivo [^125I]Tyr^26-SRIF-28 binding in rat cortex and hippocampus after s.c. dosing; parameters: species or system Wistar rats; settings: 60 min
Protocol: Ex-vivo binding was used to determine to whether compound 14 (a potent sst2 receptor selective hydantoin) when applied peripherally to rates can cross the blood brain barrier, as robust behavioral models are not fully characterized and blood-brain penetration models are not routinely available. […] The rats were given saline or drug sub-cutaneously at the indicated dose (in saline) and killed 60 minutes after application with CO2. The brain was removed and placed on ice; the cerebral cortex and hippocampus were dissected out and weighted. […] The homogenate was stored on ice and used immediately or deep frozen (-70° C.) until used (1-3 days). […] The tables list the effects of compound 14 on cortex (Table 6) and hippocampus (Table 7) binding at the doses and times indicated (see also FIGS. 3 and 4). TB=total binding, NS=non specific binding, SB=specific binding. The values are indicated in cpm for individual animals, mean, n=number of animals, sem=standard error of the mean; percent=% specific binding remaining following treatment compared to controls.

[6] = cortex, SRIF-28 +MgCl-2, 0.3 mg/kg s.c.
[7] = cortex, SRIF-28 +MgCl-2, 1 mg/kg s.c.
[8] = cortex, SRIF-28 +MgCl-2, 3 mg/kg s.c.
[9] = cortex, SRIF-28 +MgCl-2, 10 mg/kg s.c.
[10] = hippocampus, SRIF-28 +MgCl-2, 0.3 mg/kg s.c.
[11] = hippocampus, SRIF-28 +MgCl-2, 1 mg/kg s.c.
[12] = hippocampus, SRIF-28 +MgCl-2, 3 mg/kg s.c.
[13] = hippocampus, SRIF-28 +MgCl-2, 10 mg/kg s.c.

With `N#Cc1cc(S(=O)(=O)N2C(=O)N(CCCCCN)C(=O)C2Cc2c[nH]c3ccccc23)ccc1Oc1ccc(N)cc1` (stereo not shown) [Compound 42] as the molecule, how does the “proportion present in plasma at 4° C.” value ([1]; 4° C.) read?
The value was 69-92%.

And the “proportion present in plasma at 37° C.” value ([1]; 37° C.)?
Its value is 40-60%.

What about the binding to plasma proteins [2] of the same molecule?
The binding to plasma proteins was 90%.

And the “fraction free in rat plasma” value ([2]; 50-5000 ng/mL, 37° C.)?
The value was 10-12%.

What about the “Urinary excretion of parent drug” value ([3]; 0-48 hours after single intravenous 1 mg/kg [^14C]-42, individual animals, 1 mg/kg) of the same molecule?
Its value is 0.96 % of dose and 1.98 % of dose and 1.97 % of dose.

And the “Urinary excretion of parent drug” value ([3]; 0-48 hours after single intravenous 1 mg/kg [^14C]-42, mean of 3 animals)?
Its value is 1.64 % of dose.

What about the “Urinary excretion of parent drug” value ([3]; 0-48 hours after single oral 10 mg/kg [^14C]-42, individual animals, 10 mg/kg) of the same molecule?
Its value is 0.001 % of dose and 0.053 % of dose and 0.114 % of dose.

And the “Urinary excretion of parent drug” value ([3]; 0-48 hours after single oral 10 mg/kg [^14C]-42, mean of 3 animals)?
Its value is 0.056 % of dose.

And the “drug-related material in blood” value ([3]; rat blood extracts after intravenous dosing)?
The value was “mainly of unchanged drug”.

And the “AUC ratio parent drug/radioactivity” value [4]?
Its value is 0.7.

And the “f2 (fraction of dose eliminated within λ2)” value [4]?
The value was 67%.

Which results are given for `Cc1cccc2c(CC3C(=O)N(CCCCCN)C(=O)N3S(=O)(=O)c3ccc(Oc4ccc(O)cc4)c(C#N)c3)c[nH]c12` (stereo not shown) [Compound 14]?
NS non specific binding, individual animals [5, 6]: 3058 cpm and 2970 cpm and 3027 cpm; NS non specific binding, mean [5, 6]: 3018 cpm; SB specific binding, individual animals [5, 6]: 24318 cpm and 23238 cpm and 23669 cpm; SB specific binding, mean [5, 6]: 23742 cpm; TB total binding, individual animals [5, 6]: 27376 cpm and 26208 cpm and 26696 cpm; TB total binding, mean [5, 6]: 26760 cpm; percent specific binding remaining compared to controls [5, 6]: 89%; NS non specific binding, individual animals [5, 7]: 2915 cpm and 3036 cpm and 3191 cpm; NS non specific binding, mean [5, 7]: 3047 cpm; SB specific binding, individual animals [5, 7]: 21767 cpm and 23930 cpm and 23905 cpm; SB specific binding, mean [5, 7]: 23201 cpm; TB total binding, individual animals [5, 7]: 24682 cpm and 26966 cpm and 27096 cpm; TB total binding, mean [5, 7]: 26248 cpm; percent specific binding remaining compared to controls [5, 7]: 95%; NS non specific binding, individual animals [5, 8]: 2980 cpm and 3016 cpm and 3116 cpm; NS non specific binding, mean [5, 8]: 3037 cpm; SB specific binding, individual animals [5, 8]: 22191 cpm and 21992 cpm and 22578 cpm; SB specific binding, mean [5, 8]: 22254 cpm; TB total binding, individual animals [5, 8]: 25171 cpm and 25008 cpm and 25694 cpm; TB total binding, mean [5, 8]: 25291 cpm; percent specific binding remaining compared to controls [5, 8]: 91%; NS non specific binding, individual animals [5, 9]: 3070 cpm and 3015 cpm and 3305 cpm; NS non specific binding, mean [5, 9]: 3130 cpm; SB specific binding, individual animals [5, 9]: 22730 cpm and 21395 cpm and 23605 cpm; SB specific binding, mean [5, 9]: 22577 cpm; TB total binding, individual animals [5, 9]: 25800 cpm and 24410 cpm and 26910 cpm; TB total binding, mean [5, 9]: 25707 cpm; percent specific binding remaining compared to controls [5, 9]: 93%; NS non specific binding, individual animals [5, 10]: 2936 cpm and 2874 cpm and 2753 cpm; NS non specific binding, mean [5, 10]: 2854 cpm; SB specific binding, individual animals [5, 10]: 18219 cpm and 18124 cpm and 19319 cpm; SB specific binding, mean [5, 10]: 18554 cpm; TB total binding, individual animals [5, 10]: 21155 cpm and 20998 cpm and 22072 cpm; TB total binding, mean [5, 10]: 21408 cpm; percent specific binding remaining compared to controls [5, 10]: 112%; NS non specific binding, individual animals [5, 11]: 2754 cpm and 2528 cpm and 2621 cpm; NS non specific binding, mean [5, 11]: 2634 cpm; SB specific binding, individual animals [5, 11]: 17055 cpm and 18516 cpm and 18145 cpm; SB specific binding, mean [5, 11]: 17905 cpm; TB total binding, individual animals [5, 11]: 19809 cpm and 21044 cpm and 20766 cpm; TB total binding, mean [5, 11]: 20540 cpm; percent specific binding remaining compared to controls [5, 11]: 108%; NS non specific binding, individual animals [5, 12]: 2532 cpm and 2841 cpm and 2786 cpm; NS non specific binding, mean [5, 12]: 2720 cpm; SB specific binding, individual animals [5, 12]: 15758 cpm and 14336 cpm and 15162 cpm; SB specific binding, mean [5, 12]: 15085 cpm; TB total binding, individual animals [5, 12]: 18290 cpm and 17117 cpm and 17948 cpm; TB total binding, mean [5, 12]: 17805 cpm; percent specific binding remaining compared to controls [5, 12]: 91%; NS non specific binding, individual animals [5, 13]: 2587 cpm and 2850 cpm and 2711 cpm; NS non specific binding, mean [5, 13]: 2716 cpm; SB specific binding, individual animals [5, 13]: 15809 cpm and 14387 cpm and 13715 cpm; SB specific binding, mean [5, 13]: 14637 cpm; TB total binding, individual animals [5, 13]: 18398 cpm and 17237 cpm and 18426 cpm; TB total binding, mean [5, 13]: 17353 cpm; percent specific binding remaining compared to controls [5, 13]: 88%
